Data: ChEMBL document CHEMBL5346975, “Conjugation of Vancomycin with a Single Arginine Improves Efficacy against Mycobacteria by More Effective Peptidoglycan Targeting” (2023)
Values after ≈ are worked out from the molar mass of the structure shown. Active and inactive are the calls of the source. The rule behind the calls is not given here.

How the values were obtained:
Assay type in all cases: functional
[1] = test system: Mycolicibacterium smegmatis; assay: Antibiofilm activity against Mycobacterium smegmatis 700084 assessed as eradication of preformed bacterial biofilm incubated for 24 hrs by crystal violet staining based assay
[2] = test system: Mycolicibacterium smegmatis; assay: Antibacterial activity against Mycobacterium smegmatis 700084 assessed as inhibition of bacterial growth incubated for 48 hrs by resazurin dye based broth microdilution method
[3] = test system: Corynebacterium glutamicum; assay: Antibacterial activity against Corynebacterium glutamicum 13032 assessed as inhibition of bacterial growth incubated for 18 to 20 hrs by broth microdilution method; settings: time 18-20 hrs
[4] = test system: Bacillus subtilis; assay: Antibacterial activity against Bacillus subtilis 23857 assessed as inhibition of bacterial growth incubated for 18 to 20 hrs by broth microdilution method; settings: time 18-20 hrs
[5] = test system: Mycobacteroides abscessus; assay: Antibacterial activity against Mycobacterium abscessus 19977 assessed as inhibition of bacterial growth incubated for 72 hrs by resazurin dye based broth microdilution method
[6] = test system: Mycobacterium kansasii; assay: Antibacterial activity against Mycobacterium kansasii 12478 assessed as inhibition of bacterial growth incubated for 6 to 7 days by resazurin dye based broth microdilution method; settings: time 6-7 day
[7] = test system: Mycobacterium avium; assay: Antibacterial activity against Mycobacterium avium 25291 assessed as inhibition of bacterial growth incubated for 6 to 7 days by resazurin dye based broth microdilution method; settings: time 6-7 day
[8] = test system: Mycobacterium avium; assay: Antibacterial activity against Mycobacterium avium 700898 assessed as inhibition of bacterial growth incubated for 6 to 7 days by resazurin dye based broth microdilution method; settings: time 6-7 day
[9] = test system: Mycolicibacterium smegmatis; assay: Synergistic antibacterial activity against Mycobacterium smegmatis 700084 assessed as fractional inhibitory concentration index incubated for 48 hrs in presence of ethambutol by checkerboard assay
[10] = test system: Mycobacteroides abscessus; assay: Synergistic antibacterial activity against Mycobacterium abscessus 19977 assessed as fractional inhibitory concentration index incubated for 72 hrs in presence of ethambutol by checkerboard assay
[11] = test system: Mycolicibacterium smegmatis; assay: Inhibition of peptidoglycan biosynthesis in Mycobacterium smegmatis 700084 assessed as increase in N-glycolyl modified precursor UDP-MurNGlyc-pentapeptide accumulation at 10 uM incubated for 4 hrs by RP-HPLC method
[12] = test system: Mycobacteroides abscessus; assay: Synergistic antibacterial activity against Mycobacterium abscessus 19977 assessed as test compound MIC incubated for 72 hrs in presence of 39 uM ethambutol by checkerboard assay
[13] = test system: Mycobacteroides abscessus; assay: Synergistic antibacterial activity against Mycobacterium abscessus 19977 assessed as test compound MIC incubated for 72 hrs in presence of 78 uM ethambutol by checkerboard assay
[14] = test system: Mycolicibacterium smegmatis; assay: Inhibition of biofilm formation in Mycobacterium smegmatis 700084 assessed as reduction in wrinkled pellicle formation incubated for 5 days; settings: time 5 day
[15] = test system: Mycobacteroides abscessus; assay: Antibacterial activity against Mycobacterium abscessus 19977 assessed as elimination of viable bacteria at 2 times MIC measured after 50 hrs by time kill assay relative to control
[16] = test system: Mycolicibacterium smegmatis; assay: (§1) Antibacterial activity of against Mycobacterium smegmatis 700084 assessed as Ac-Kaa-induced neutralization of antibiotic effect by measuring molar excess ratio of smallest concentration of AC-Kaa required to neutralize antibiotic effect to MIC of antibiotic at 16 uM incubated for 48 hrs by resazurin dye based broth microdilution method
[17] = test system: Corynebacterium glutamicum; assay: as §1, with “Corynebacterium glutamicum 13032” for “Mycobacterium smegmatis 700084”, “0.25” for “16”
[18] = test system: Bacillus subtilis; assay: as §1, with “Bacillus subtilis 23857” for “Mycobacterium smegmatis 700084”, “0.25” for “16”

Structure (SMILES) | MBEC [1] | MIC [2] [µM] | MIC [3] [µM] | MIC [4] [µM] | MIC [5] [µM] | MIC [6] [µM] | MIC [7] [µM] | MIC [8] [µM] | fractional inhibitory concentration index (FICI) [9] | fractional inhibitory concentration index (FICI) [10] | inhibition [11] | MIC [12] [µM] | MIC [13] [µM] | BBC [14] [µM] | Activity [15] [%] | Ratio [16] | Ratio [17] | Ratio [18]
CO[C@H]1/C=C/O[C@@]2(C)Oc3c(C)c(O)c4c(O)c(c(/C=N/N5CCN(C)CC5)c(O)c4c3C2=O)NC(=O)/C(C)=C\C=C\[C@H](C)[C@H](O)[C@@H](C)[C@@H](O)[C@@H](C)[C@H](OC(C)=O)[C@@H]1C [RIFAMPIN] | 156 µM | – | – | – | – | – | – | – | – | – | – | – | – | – | – | – | – | –
CC[C@@H](CO)NCCN[C@@H](CC)CO [ETHAMBUTOL] | >256 µg/mL | – | – | – | – | – | – | – | – | – | – | – | – | – | – | – | – | –
CN[C@H](CC(C)C)C(=O)N[C@H]1C(=O)N[C@@H](CC(N)=O)C(=O)N[C@H]2C(=O)N[C@H]3C(=O)N[C@H](C(=O)N[C@H](C(=O)O)c4cc(O)cc(O)c4-c4cc3ccc4O)[C@H](O)c3ccc(c(Cl)c3)Oc3cc2cc(c3O[C@@H]2O[C@H](CO)[C@@H](O)[C@H](O)[C@H]2O[C@H]2C[C@](C)(N)[C@H](O)[C@H](C)O2)Oc2ccc(cc2Cl)[C@H]1O [VANCOMYCIN] | 64 µM | 8 (≈ 11.6 µg/mL) | 0.25 (≈ 0.362 µg/mL) | 0.25 (≈ 0.362 µg/mL) | 64 (≈ 92.8 µg/mL) | 24 (≈ 34.8 µg/mL) | > 256 | 64 (≈ 92.8 µg/mL) | 0.28 | 0.17 | Active | 3 | 2 | 0.5 | >95 | 3.9 | 62.5 | 15.6
